The target of one series is T1, human MC3R (Homo sapiens, UniProt P41968).
T1 construct: expressed in transfected cells
In words: Intracellular cAMP levels in live cells, MC3R agonist activity. In kind it is cell-based. Particulars: cAMP split-luciferase reporter cell line stably expressing human MC3R; direct agonist effect, measurement window 1.

In the next series the target is human MC4R (Homo sapiens, UniProt P32245). In words: Intracellular cAMP levels in live cells, MC3R selectivity relative to MC4R. In kind it is cell-based. Particulars: cAMP assays in human MC3R and human MC4R stable cell lines.
A further series is described as follows: in vitro. Particulars: for half-life at 1 µM / remaining at 5 min, 1 µM / remaining at 0.25 h, 1 µM / remaining at 0.5 h, 1 µM / remaining at 1 h, 1 µM: mouse, plasma; for Mouse Plasma Stability, time point 0 min: pooled mouse plasma, 37° C. The protocol: Pooled mouse plasma was prepared and stored at −80° C. prior to use. 396 μL mouse plasma was incubated at 37° C. for 5 minutes in 1.5 mL microcentrifuge tubes. 4 μL of 100 μM test or control compound/peptide was added to each tube and incubated for 0.5, 15, 30, 60, 120, or 240 minutes. An aliquot of 40 μL of each reaction was stopped by the addition of 4 volume of cold acetonitrile containing 200 ng/mL of Setmelanotide as an internal standard (IS). The incubation solution was centrifuged at 3500 rpm for 10 minutes to precipitate protein. The supernatant was used for LC/MS/MS analysis. The natural log peak area ratio (compound peak […] area/internal standard peak area) was plotted against time and the gradient of the line determined.

Non-standard residues stand in square brackets, D forms with d. Residues, ends and D or L forms follow the SMILES beside them. Nle = CCCC[C@H](N)C(=O)O; Aib = CC(C)(N)C(=O)O

Sequence of human MC4R (P32245 whole entry): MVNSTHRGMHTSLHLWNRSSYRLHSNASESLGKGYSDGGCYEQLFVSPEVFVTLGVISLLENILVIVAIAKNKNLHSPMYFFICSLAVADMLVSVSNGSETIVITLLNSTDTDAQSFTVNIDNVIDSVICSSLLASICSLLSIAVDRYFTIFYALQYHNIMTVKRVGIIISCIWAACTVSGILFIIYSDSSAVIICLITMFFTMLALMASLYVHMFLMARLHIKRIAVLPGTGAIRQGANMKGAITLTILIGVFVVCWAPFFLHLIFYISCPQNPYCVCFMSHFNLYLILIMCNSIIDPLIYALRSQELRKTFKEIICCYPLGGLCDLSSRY
T1 sequence (P41968 whole entry): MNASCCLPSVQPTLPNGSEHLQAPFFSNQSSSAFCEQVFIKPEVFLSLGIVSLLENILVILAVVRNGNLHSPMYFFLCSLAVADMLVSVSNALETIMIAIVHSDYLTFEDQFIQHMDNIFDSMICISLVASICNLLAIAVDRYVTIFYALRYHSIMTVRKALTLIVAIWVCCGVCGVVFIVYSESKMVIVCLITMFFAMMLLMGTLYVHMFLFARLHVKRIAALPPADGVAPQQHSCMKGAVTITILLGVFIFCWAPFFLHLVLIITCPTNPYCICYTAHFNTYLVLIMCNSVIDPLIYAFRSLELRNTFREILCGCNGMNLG

`CCCC[C@H](NC(=O)[C@@H](NC(=O)[C@@H](N)Cc1ccc(O)cc1)C(C)C)C(=O)N[C@H](C)C(=O)N[C@@H](Cc1c[nH]cn1)C(=O)N[C@@H](Cc1ccccc1)C(=O)N[C@@H](CCCNC(=N)N)C(=O)N[C@H](Cc1c[nH]c2ccccc12)C(=O)N[C@@H](CC(=O)O)C(=O)N[C@H](CCCNC(=N)N)C(=O)N[C@@H](Cc1ccccc1)C(=O)NCC(=O)O` [CTX-1126, Tyr-Val-Nle-D-Ala-His-Phe-Arg-D-Trp-Asp-D-Arg-Phe-Gly] (H-YV[Nle][dA]HFR[dW]D[dR]FG-OH) registered an EC50 at human MC3R of 3 nM. In addition, the “MC3R selectivity (relative to MC4R)” value on human MC4R is 43. In “in vitro”, this molecule came in with a half-life at 1 µM of 1.61 min; an amount remaining at 5 min, 1 µM of 11.7%; an amount remaining at 0.25 h, 1 µM of 0.16%; an amount remaining at 0.5 h, 1 µM of 0.03%. This molecule showed a Mouse Plasma Stability, time point 0 min in the series “in vitro” of 100%.

In turn, `CCCC[C@H](NC(=O)[C@@H](NC(=O)[C@@H](N)Cc1ccc(O)cc1)C(C)C)C(=O)N[C@H](C)C(=O)N[C@@H](Cc1c[nH]cn1)C(=O)N[C@@H](Cc1ccccc1)C(=O)N[C@@H](CCCNC(=N)N)C(=O)N[C@H](Cc1c[nH]c2ccccc12)C(=O)N[C@@H](CC(=O)O)C(=O)N[C@@H](CCCNC(=N)N)C(=O)N[C@H](Cc1ccccc1)C(=O)NCC(=O)O` [CTX-1127, Tyr-Val-Nle-D-Ala-His-Phe-Arg-D-Trp-Asp-Arg-D-Phe-Gly] (H-YV[Nle][dA]HFR[dW]DR[dF]G-OH) gave a half-maximal effective concentration (EC50) at human MC3R of 2.5 nM. At human MC4R, the “MC3R selectivity (relative to MC4R)” value worked out at 95. In the series “in vitro”, this molecule returned a half-life at 1 µM of 1.28 min; a share remaining at 5 min, 1 µM of 6.71%; a fraction remaining at 0.25 h, 1 µM of 0.25%; a share remaining at 0.5 h, 1 µM of 0.27%. For the same molecule, in the series “in vitro”, the fraction remaining at 1 h, 1 µM stood at 0.04% and the Mouse Plasma Stability, time point 0 min worked out at 100%.

The molecule `CCCC[C@H](NC(=O)[C@@H](NC(=O)[C@@H](N)Cc1ccc(O)cc1)C(C)C)C(=O)NC(C)(C)C(=O)N[C@@H](Cc1c[nH]cn1)C(=O)N[C@@H](Cc1ccccc1)C(=O)N[C@@H](CCCNC(=N)N)C(=O)N[C@H](Cc1c[nH]c2ccccc12)C(=O)N[C@@H](CC(=O)O)C(=O)N[C@@H](CCCNC(=N)N)C(=O)N[C@@H](Cc1ccccc1)C(=O)NCC(=O)O` [CTX-1134, Tyr-Val-Nle-Aib-His-Phe-Arg-D-Trp-Asp-Arg-Phe-Gly] (H-YV[Nle][Aib]HFR[dW]DRFG-OH) yielded an EC50 at human MC3R of 2.5 nM. Also, the “MC3R selectivity (relative to MC4R)” value on human MC4R is 566. In “in vitro”, this molecule came in with a half-life at 1 µM of 2.77 min; a share remaining at 5 min, 1 µM of 28.6%; a share remaining at 0.25 h, 1 µM of 2.97%; an amount remaining at 0.5 h, 1 µM of 0.14%. In the series “in vitro”, this molecule gave an amount remaining at 1 h, 1 µM of 0.02% and a Mouse Plasma Stability, time point 0 min of 100%.

Values taken from US20240287154A1, “MC3R AGONIST PEPTIDES” (The Regents of the University of Michigan, priority 2021, published 2024).
